Experimental findings from ChEMBL document CHEMBL1123997, “Modeling of beta-adrenoceptors based on molecular electrostatic potential studies of agonists and antagonists” (J Med Chem, 1988) are described below.

Each structure is given as a SMILES string.

In assay [1] the target is T1, Adrenergic receptor beta (Homo sapiens) (UniProt P08588+P07550+P13945).
Assay [2] concerns the target T1, Adrenergic receptor beta (Homo sapiens). Particulars: filed as antagonist.
For assay [3] the target is unchanged. Conditions: filed as antagonist. This is another data set of the same source.
For assay [4] the target is unchanged. This is another data set of the same source.
Assay [5] has the same target. Particulars: filed as agonist.
Description: Tested for intrinsic sympathomimetic activity (ISA); Agonist

As to `COc1ccc(CCNC[C@H](O)COc2ccc(-c3nc(C(C)=O)c[nH]3)cc2)cc1OC`, in assay [1], the ISA entry was “Partial agonist”.

`CC(C)(C)NCC(O)COc1cccc2c1CC(O)C(O)C2` (centres undefined): the ISA result in assay [2] was “Antagonist”.

In the case of `CC(C)(C)NCC(O)COc1cccc2c1CCCC2=O` (centres undefined), the ISA entry in assay [3] is “Antagonist”.

Turning to `CC(C)(C)NC[C@H](O)COc1cccc2c1CC1(CCCCC1)C2=O`, in assay [2], the ISA result was “Antagonist”.

For the compound `CC(C)(C)NCC(O)COc1cccc2c1SCCC2` (centres undefined), in assay [2], the ISA entry is “Antagonist”.

In the case of `CCN(CC)C(=O)Nc1ccc(OCC(O)CNC(C)(C)C)c(C(C)=O)c1` (centres undefined), in assay [1], the ISA entry is “Partial agonist”.

With `CC(C)NCC(O)COc1cccc2[nH]ccc12` (centres undefined), the ISA entry in assay [4] was “Partial agonist”.

As for `CCc1cccc2cc(C(O)CNC(C)(C)C)oc12` (centres undefined), in assay [4], the ISA result is “Partial agonist”.

With `Cc1cc2c(OCC(O)CNC(C)C)cccc2[nH]1` (centres undefined), in assay [1], the ISA result is “Partial agonist”.

`CC(C)NCC(O)c1ccc(Cl)c(Cl)c1` (centres undefined): in assay [4], the ISA entry was “Partial agonist”.

Turning to `CC(C)(C)NCC(O)COc1ccccc1C#N` (centres undefined), the ISA result in assay [1] was “Partial agonist”.

For the compound `NC[C@H](O)c1ccc(O)c(O)c1`, in assay [5], the ISA result is “Agonist”.

Turning to `COCCOc1ccc(OC[C@@H](O)CNC(C)C)cc1`, the ISA result in assay [4] is “Partial agonist”.

Regarding `COc1ccc(CCNC[C@H](O)COc2ccc(Cc3nc(C(C)=O)c[nH]3)cc2)cc1OC`, in assay [2], the ISA result was “Antagonist”.
